Assay results published in patent publication US20250230193A1, “CYCLIC COMPOUND HAVING SELECTIVE KRAS INHIBITORY EFFECT ON HRAS AND NRAS” (CHUGAI SEIYAKU KABUSHIKI KAISHA, priority 2022, published 2025).
Where a SMILES comes first, the peptide text is derived from it. Bridges are numbered along the chain shown (N, C = ends). [ ]: non-standard residue; d: D form. The star is where a group is joined. hPhe(3-Cl-4-CF3) = N[C@@H](CCc1ccc(C(F)(F)F)c(Cl)c1)C(=O)O; NPrPhe(4-CF3) = CCCN[C@@H](Cc1ccc(C(F)(F)F)cc1)C(=O)O; NMeGly(cPent) = CN[C@H](C(=O)O)C1CCCC1; Pro(4,4-F2) = O=C(O)[C@@H]1CC(F)(F)CN1; Hyp = O=C(O)[C@@H]1C[C@@H](O)CN1; NMeL = CN[C@@H](CC(C)C)C(=O)O; Morpholide = C1CN(*)CCO1; NMeA = CN[C@@H](C)C(=O)O; Ac5c = NC1(C(=O)O)CCCC1; Aze = O=C(O)[C@@H]1CCN1; Ac4c = NC1(C(=O)O)CCC1; Sar = CNCC(=O)O

What was measured:
[1] = molecular target: GDP-bound HRAS wild-type protein (Homo sapiens, UniProt P01112); assay: Binding to HRAS by surface plasmon resonance (SPR), Single Cycle Kinetics; conditions: KD ratio HRAS/KRAS, SPR
Sequence of GDP-bound HRAS wild-type protein (P01112 whole entry): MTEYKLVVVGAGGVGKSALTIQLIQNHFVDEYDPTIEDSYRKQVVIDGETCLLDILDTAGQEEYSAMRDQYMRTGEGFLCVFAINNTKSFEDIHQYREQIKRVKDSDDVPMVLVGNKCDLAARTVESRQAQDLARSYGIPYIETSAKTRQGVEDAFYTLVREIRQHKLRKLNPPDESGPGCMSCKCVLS

[2] = molecular target: GDP-bound NRAS wild-type protein (Homo sapiens, UniProt P01111); assay: Binding to NRAS by surface plasmon resonance (SPR), Single Cycle Kinetics; conditions: KD ratio NRAS/KRAS, SPR
Sequence of GDP-bound NRAS wild-type protein (P01111 whole entry): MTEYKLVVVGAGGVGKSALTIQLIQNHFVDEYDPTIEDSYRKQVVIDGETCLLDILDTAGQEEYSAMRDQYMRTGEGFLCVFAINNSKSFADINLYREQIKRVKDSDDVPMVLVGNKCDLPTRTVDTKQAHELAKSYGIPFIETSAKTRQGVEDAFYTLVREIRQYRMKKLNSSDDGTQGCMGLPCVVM

In the case of `CCCN1C(=O)[C@@H]2CCN2C(=O)[C@H](C)N(C)C(=O)[C@H]([C@@H](C)CC)NC(=O)[C@H](CC(C)C)N(C)C(=O)C[C@@H](C(=O)N2CCOCC2)NC(=O)[C@H](C2CCCC2)N(C)C(=O)C2(CCC2)NC(=O)[C@@H]2C[C@@H](OCC)CN2C(=O)[C@H](CCc2ccc(C(F)(F)F)c(Cl)c2)NC(=O)CN(C)C(=O)[C@@H]1Cc1ccc(C(F)(F)F)cc1` [PP0348] ([NMeL]I[NMeA][Aze][NPrPhe(4-CF3)][Sar][hPhe(3-Cl-4-CF3)][Hyp](Et)[Ac4c][NMeGly(cPent)]D-Morpholide; lactam N-11), the “HRAS/KRAS (ratio of KD for GDP-bound HRAS wild-type to KD for KRAS)” value [1] was “B (a compound having 3 or more and less than 10 is denoted as B)” and the “NRAS/KRAS (ratio of KD for GDP-bound NRAS wild-type to KD for KRAS)” value [2] was “C (A compound having a KD ratio of 0.1 or more and less than 3 is denoted as C)”.

With `CCCN1C(=O)[C@@H]2CCN2C(=O)CN(C)C(=O)[C@H]([C@@H](C)CC)NC(=O)[C@H](CC(C)C)N(C)C(=O)C[C@@H](C(=O)N2CCOCC2)NC(=O)[C@H](C2CCCC2)N(C)C(=O)C2(CCCC2)NC(=O)[C@@H]2CCCN2C(=O)[C@H](CCc2ccc(C(F)(F)F)c(Cl)c2)NC(=O)CN(C)C(=O)[C@@H]1Cc1ccc(C(F)(F)F)cc1` [PP0349] ([NMeL]I[Sar][Aze][NPrPhe(4-CF3)][Sar][hPhe(3-Cl-4-CF3)]P[Ac5c][NMeGly(cPent)]D-Morpholide; lactam N-11) the “HRAS/KRAS (ratio of KD for GDP-bound HRAS wild-type to KD for KRAS)” value [1] was “B (a compound having 3 or more and less than 10 is denoted as B)” and the “NRAS/KRAS (ratio of KD for GDP-bound NRAS wild-type to KD for KRAS)” value [2] was “C (A compound having a KD ratio of 0.1 or more and less than 3 is denoted as C)”.

For `CCCN1C(=O)[C@@H]2CCN2C(=O)CN(C)C(=O)[C@H]([C@@H](C)CC)NC(=O)[C@H](CC(C)C)N(C)C(=O)C[C@@H](C(=O)N2CCOCC2)NC(=O)[C@H](C2CCCC2)N(C)C(=O)C2(CCC2)NC(=O)[C@@H]2CCCN2C(=O)[C@H](CCc2ccc(C(F)(F)F)c(Cl)c2)NC(=O)CN(C)C(=O)[C@@H]1Cc1ccc(C(F)(F)F)cc1` [PP0350] ([NMeL]I[Sar][Aze][NPrPhe(4-CF3)][Sar][hPhe(3-Cl-4-CF3)]P[Ac4c][NMeGly(cPent)]D-Morpholide; lactam N-11), the “HRAS/KRAS (ratio of KD for GDP-bound HRAS wild-type to KD for KRAS)” value [1] was “B (a compound having 3 or more and less than 10 is denoted as B)” and the “NRAS/KRAS (ratio of KD for GDP-bound NRAS wild-type to KD for KRAS)” value [2] was “C (A compound having a KD ratio of 0.1 or more and less than 3 is denoted as C)”.

`CCCN1C(=O)[C@@H]2CCN2C(=O)CN(C)C(=O)[C@H]([C@@H](C)CC)NC(=O)[C@H](CC(C)C)N(C)C(=O)C[C@@H](C(=O)N2CCOCC2)NC(=O)[C@H](C2CCCC2)N(C)C(=O)C2(CCCC2)NC(=O)[C@@H]2CC(F)(F)CN2C(=O)[C@H](CCc2ccc(C(F)(F)F)c(Cl)c2)NC(=O)CN(C)C(=O)[C@@H]1Cc1ccc(C(F)(F)F)cc1` [PP0351] ([NMeL]I[Sar][Aze][NPrPhe(4-CF3)][Sar][hPhe(3-Cl-4-CF3)][Pro(4,4-F2)][Ac5c][NMeGly(cPent)]D-Morpholide; lactam N-11) was tested, and the “HRAS/KRAS (ratio of KD for GDP-bound HRAS wild-type to KD for KRAS)” value [1] was “B (a compound having 3 or more and less than 10 is denoted as B)” and the “NRAS/KRAS (ratio of KD for GDP-bound NRAS wild-type to KD for KRAS)” value [2] was “C (A compound having a KD ratio of 0.1 or more and less than 3 is denoted as C)”.

With `CCCN1C(=O)[C@@H]2CCN2C(=O)CN(C)C(=O)[C@H]([C@@H](C)CC)NC(=O)[C@H](CC(C)C)N(C)C(=O)C[C@@H](C(=O)N2CCOCC2)NC(=O)[C@H](C2CCCC2)N(C)C(=O)C2(CCC2)NC(=O)[C@@H]2CC(F)(F)CN2C(=O)[C@H](CCc2ccc(C(F)(F)F)c(Cl)c2)NC(=O)CN(C)C(=O)[C@@H]1Cc1ccc(C(F)(F)F)cc1` [PP0352] ([NMeL]I[Sar][Aze][NPrPhe(4-CF3)][Sar][hPhe(3-Cl-4-CF3)][Pro(4,4-F2)][Ac4c][NMeGly(cPent)]D-Morpholide; lactam N-11) the “HRAS/KRAS (ratio of KD for GDP-bound HRAS wild-type to KD for KRAS)” value [1] was “B (a compound having 3 or more and less than 10 is denoted as B)” and the “NRAS/KRAS (ratio of KD for GDP-bound NRAS wild-type to KD for KRAS)” value [2] was “C (A compound having a KD ratio of 0.1 or more and less than 3 is denoted as C)”.

`CCCN1C(=O)[C@@H]2CCN2C(=O)CN(C)C(=O)[C@H]([C@@H](C)CC)NC(=O)[C@H](CC(C)C)N(C)C(=O)C[C@@H](C(=O)N2CCOCC2)NC(=O)[C@H](C2CCCC2)N(C)C(=O)C2(CCCC2)NC(=O)[C@@H]2C[C@@H](OCC)CN2C(=O)[C@H](CCc2ccc(C(F)(F)F)c(Cl)c2)NC(=O)CN(C)C(=O)[C@@H]1Cc1ccc(C(F)(F)F)cc1` [PP0353] ([NMeL]I[Sar][Aze][NPrPhe(4-CF3)][Sar][hPhe(3-Cl-4-CF3)][Hyp](Et)[Ac5c][NMeGly(cPent)]D-Morpholide; lactam N-11) was tested, and the “HRAS/KRAS (ratio of KD for GDP-bound HRAS wild-type to KD for KRAS)” value [1] was “B (a compound having 3 or more and less than 10 is denoted as B)” and the “NRAS/KRAS (ratio of KD for GDP-bound NRAS wild-type to KD for KRAS)” value [2] was “C (A compound having a KD ratio of 0.1 or more and less than 3 is denoted as C)”.

In the case of `CCCN1C(=O)[C@@H]2CCN2C(=O)CN(C)C(=O)[C@H]([C@@H](C)CC)NC(=O)[C@H](CC(C)C)N(C)C(=O)C[C@@H](C(=O)N2CCOCC2)NC(=O)[C@H](C2CCCC2)N(C)C(=O)C2(CCC2)NC(=O)[C@@H]2C[C@@H](OCC)CN2C(=O)[C@H](CCc2ccc(C(F)(F)F)c(Cl)c2)NC(=O)CN(C)C(=O)[C@@H]1Cc1ccc(C(F)(F)F)cc1` [PP0354] ([NMeL]I[Sar][Aze][NPrPhe(4-CF3)][Sar][hPhe(3-Cl-4-CF3)][Hyp](Et)[Ac4c][NMeGly(cPent)]D-Morpholide; lactam N-11), the “HRAS/KRAS (ratio of KD for GDP-bound HRAS wild-type to KD for KRAS)” value [1] was “B (a compound having 3 or more and less than 10 is denoted as B)” and the “NRAS/KRAS (ratio of KD for GDP-bound NRAS wild-type to KD for KRAS)” value [2] was “C (A compound having a KD ratio of 0.1 or more and less than 3 is denoted as C)”.

In the case of `CCCN1C(=O)CN(C)C(=O)CN(C)C(=O)[C@H]([C@@H](C)CC)NC(=O)[C@H](CC(C)C)N(C)C(=O)C[C@@H](C(=O)N(C)C)NC(=O)[C@H](C2CCCC2)N(C)C(=O)C2(CCCC2)NC(=O)[C@@H]2CCCN2C(=O)[C@H](CCc2ccc(C(F)(F)F)c(Cl)c2)NC(=O)CN(C)C(=O)[C@@H]1Cc1ccc(C(F)(F)F)cc1` [PP0355] ([NMeL]I[Sar][Sar][NPrPhe(4-CF3)][Sar][hPhe(3-Cl-4-CF3)]P[Ac5c][NMeGly(cPent)]D-NMe2; lactam N-11), the “HRAS/KRAS (ratio of KD for GDP-bound HRAS wild-type to KD for KRAS)” value [1] was “B (a compound having 3 or more and less than 10 is denoted as B)” and the “NRAS/KRAS (ratio of KD for GDP-bound NRAS wild-type to KD for KRAS)” value [2] was “B (a compound having 3 or more and less than 10 is denoted as B)”.

`CCCN1C(=O)CN(C)C(=O)CN(C)C(=O)[C@H]([C@@H](C)CC)NC(=O)[C@H](CC(C)C)N(C)C(=O)C[C@@H](C(=O)N(C)C)NC(=O)[C@H](C2CCCC2)N(C)C(=O)C2(CCC2)NC(=O)[C@@H]2CCCN2C(=O)[C@H](CCc2ccc(C(F)(F)F)c(Cl)c2)NC(=O)CN(C)C(=O)[C@@H]1Cc1ccc(C(F)(F)F)cc1` [PP0356] ([NMeL]I[Sar][Sar][NPrPhe(4-CF3)][Sar][hPhe(3-Cl-4-CF3)]P[Ac4c][NMeGly(cPent)]D-NMe2; lactam N-11) was tested, and the “HRAS/KRAS (ratio of KD for GDP-bound HRAS wild-type to KD for KRAS)” value [1] was “B (a compound having 3 or more and less than 10 is denoted as B)” and the “NRAS/KRAS (ratio of KD for GDP-bound NRAS wild-type to KD for KRAS)” value [2] was “B (a compound having 3 or more and less than 10 is denoted as B)”.
